Test [1] addresses T1, cellular IDO1 in HeLa cells (Homo sapiens, UniProt P14902).
T1 construct: endogenous in cells; host or cells: HeLa cells (American Type Tissue Culture Collection), induced with human recombinant IFN-γ
The test can be described thus: HeLa cell-based IDO1 Kyn (kynurenine) production assay. Particulars: IFN-γ 100 ng/mL, 48 hours. Summed up:
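IFN-γ-induced HeLa cells (100 ng/mL) in phenol red-free DMEM with 0.4 mM L-Trp, compounds added together with IFN-γ, 48 h at 37 °C. Supernatant Kyn read at 480 nm after TCA precipitation and 4-(dimethylamino)benzaldehyde reaction. IC50 from four-parameter logistic fit.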

The target in the next test is T2, Recombinant IDO1 (Homo sapiens, UniProt P14902).
T2 construct: His tag (N); made in house; host or cells: E. coli
The test can be described thus: IDO1 enzymatic assay. In kind it is biochemical. Particulars: 50 nM IDO1, 1.3 mM D-tryptophan, read-out: Enzyme IC50 (nM) IDO1. Summed up:
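N-terminally His-tagged enzyme from E. coli (50 nM) was incubated with compound, 1.3 mM D-tryptophan, 5 mM ascorbate, 6.25 μM methylene blue and 0.4 mg/mL catalase in 50 mM potassium phosphate pH 7.5, 0.1% BSA for 1.5 h at 24° C. N′-formylkynurenine formation was followed at 321 nm for 1 h; IC50 from rate slopes.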

The target in a further test is T3, Recombinant TDO (Homo sapiens, UniProt P48775).
T3 construct: His tag (C); made in house; host or cells: E. coli
The test can be described thus: TDO enzymatic assay. In kind it is biochemical. Particulars: 100 nM TDO, 0.5 mM L-tryptophan, read-out: Enzyme IC50 (nM) TDO. On the procedure: Recombinant TDO was overexpressed and purified from E. coli cells with a C-terminal His tag. TDO enzymatic assay was performed using the same methodology as IDO1 enzymatic assay except that 100 nM TDO and 0.5 mM L-tryptophan (Km concentration) were used in the TDO assay.

Setting [2] is: Table 1, 5-substituted imidazo[1,5-a]pyridines.
[3] abbreviates: Table 2, 8-substituted imidazo[1,5-a]pyridines.

Read-outs that look alike come from different tables or passages of the source. Bounds are passed on as bounds.

T3 sequence (P48775 whole entry): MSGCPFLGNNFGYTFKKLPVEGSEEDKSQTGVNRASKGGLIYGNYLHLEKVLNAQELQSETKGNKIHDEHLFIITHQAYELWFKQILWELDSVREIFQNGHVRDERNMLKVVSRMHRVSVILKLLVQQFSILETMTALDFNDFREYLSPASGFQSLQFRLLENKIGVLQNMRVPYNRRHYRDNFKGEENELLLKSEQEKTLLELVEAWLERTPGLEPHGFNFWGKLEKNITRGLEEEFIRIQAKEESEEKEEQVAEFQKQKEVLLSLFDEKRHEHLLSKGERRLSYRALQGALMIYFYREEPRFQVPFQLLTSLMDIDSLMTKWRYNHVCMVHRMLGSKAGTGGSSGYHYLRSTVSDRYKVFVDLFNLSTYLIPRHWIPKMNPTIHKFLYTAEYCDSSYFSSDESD
T2 sequence (P14902 whole entry): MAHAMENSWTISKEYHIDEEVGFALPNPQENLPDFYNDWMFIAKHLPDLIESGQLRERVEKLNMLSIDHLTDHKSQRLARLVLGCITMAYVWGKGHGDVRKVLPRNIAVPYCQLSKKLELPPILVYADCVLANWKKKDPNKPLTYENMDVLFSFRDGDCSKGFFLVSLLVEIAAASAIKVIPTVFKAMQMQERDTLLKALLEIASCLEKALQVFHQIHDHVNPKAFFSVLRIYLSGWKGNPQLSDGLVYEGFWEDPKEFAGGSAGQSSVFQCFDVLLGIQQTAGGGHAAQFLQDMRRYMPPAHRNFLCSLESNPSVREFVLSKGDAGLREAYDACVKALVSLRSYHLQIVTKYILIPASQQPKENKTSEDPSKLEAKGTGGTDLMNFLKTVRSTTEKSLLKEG
T1 sequence (P14902 whole entry): as above

In test [1] (setting [2]), `OC(c1c(I)ccc2cncn12)C1CCCCC1` (single isomer, unassigned) [Example A125a] registered an EC50 of 138 nM. Besides, the IC50 on Recombinant IDO1 (setting [2]) stood at 15 nM; at Recombinant TDO (setting [2]), 4500 nM.
In the case of `OC(c1c(I)ccc2cncn12)C1CCCCC1` (single isomer, unassigned) [Example A125b], in test [1] (setting [2]), the EC50 was greater than 10000 nM. The 50% inhibitory concentration (IC50) at Recombinant IDO1 (setting [2]) was 12000 nM; at Recombinant TDO (setting [2]) it was 46000 nM.
Taken in the same sequence, the figures for `OC(c1c(C2CC2)ccc2cncn12)C1CCCCC1` (single isomer, unassigned) [Example A126a] were 156 nM, 36 nM and 14000 nM.
As to `OC(c1c(C2CC2)ccc2cncn12)C1CCCCC1` (single isomer, unassigned) [Example A126b], the concentration giving a half-maximal response (EC50) in test [1] (setting [2]) was greater than 10000 nM. The IC50 at Recombinant IDO1 (setting [2]) amounted to 6800 nM; on Recombinant TDO (setting [2]), 74000 nM.
For `OC(CC1CCCCC1)c1c(C(F)(F)F)ccc2cncn12` (single isomer, unassigned) [Example A127a], the EC50 in test [1] (setting [2]) was 169 nM. The IC50 on Recombinant IDO1 (setting [2]) was 17 nM; at Recombinant TDO (setting [2]), 15000 nM.
Molecule `OC(CC1CCCCC1)c1c(C(F)(F)F)ccc2cncn12` (single isomer, unassigned) [Example A127b] displayed an EC50 in test [1] (setting [2]) of 8010 nM. The IC50 stood at 3200 nM at Recombinant IDO1 (setting [2]) and 25000 nM at Recombinant TDO (setting [2]).
Taken in the same sequence, the figures for `OC(c1c(C2CC2)ccc2cncn12)C1CCCCC1` (single isomer, unassigned) [Example A129a] were 38 nM, 14 nM and 1700 nM.
`OC(c1c(C2CC2)ccc2cncn12)C1CCCCC1` (single isomer, unassigned) [Example A129b] yielded an EC50 in test [1] (setting [2]) greater than 10000 nM. For the same molecule, the IC50 was determined as 21000 nM at Recombinant IDO1 (setting [2]) and 37000 nM at Recombinant TDO (setting [2]).
In the case of `OC(c1c(Cl)c(Cl)cc2cncn12)C1CCCCC1` (single isomer, unassigned) [Example A143a], the EC50 in test [1] (setting [2]) was determined as 274 nM. For the same molecule, the IC50 was determined as 20 nM at Recombinant IDO1 (setting [2]) and 690 nM on Recombinant TDO (setting [2]).
Molecule `OC(c1c(Cl)c(Cl)cc2cncn12)C1CCCCC1` (single isomer, unassigned) [Example A143b] returned a half-maximal effective concentration (EC50) in test [1] (setting [2]) of 6100 nM. Moreover, the IC50 on Recombinant IDO1 (setting [2]) was 3400 nM; at Recombinant TDO (setting [2]), 14000 nM.
Taken in the same sequence, the figures for `OC(CC1CCCCC1)c1c(Cl)c(Cl)cc2cncn12` (single isomer, unassigned) [Example A144a] were greater than 10000 nM, greater than 100000 nM and 23000 nM.
With `OC(CC1CCCCC1)c1c(Cl)c(Cl)cc2cncn12` (single isomer, unassigned) [Example A144b], the 50% effective concentration (EC50) in test [1] (setting [2]) was determined as 291 nM. Moreover, the IC50 turned out to be 14 nM on Recombinant IDO1 (setting [2]) and 240 nM on Recombinant TDO (setting [2]).
The molecule `Cc1ccn2cncc2c1C(O)C1CCCCC1` (single isomer, unassigned) [Example B102a] showed an EC50 in test [1] (setting [3]) of 995 nM. Also, the values for the half-maximal inhibitory concentration (IC50) on Recombinant IDO1 (setting [3]) and at Recombinant TDO (setting [3]) were 15 nM and 150 nM, respectively.
`Cc1ccn2cncc2c1C(O)C1CCCCC1` (single isomer, unassigned) [Example B102b] registered a concentration giving a half-maximal response (EC50) in test [1] (setting [3]) greater than 10000 nM. For the same molecule, the IC50 on Recombinant IDO1 (setting [3]) was 3100 nM; on Recombinant TDO (setting [3]), 31000 nM.
Taken in the same sequence, the figures for `OC(c1c(C2CC2)ccn2cncc12)C1CCCCC1` (single isomer, unassigned) [Example B107a] were 136 nM, 47 nM and 1300 nM.
`O[C@@H](c1c(C2CC2)ccn2cncc12)C1CCCCC1` (single isomer, unassigned) [Example B107b] registered a half-maximal effective concentration (EC50) in test [1] (setting [3]) greater than 10000 nM. Moreover, the half-inhibitory concentration (IC50) at Recombinant IDO1 (setting [3]) turned out to be 21000 nM; on Recombinant TDO (setting [3]), 11000 nM.
Molecule `OC(c1cccc2cncn12)C1CCCCC1` (stereo not drawn) [Example A001, Cyclohexyl(imidazo[1,5-a]pyridin-5-yl)methanol] gave a 50% effective concentration (EC50) in test [1] (setting [2]) greater than 10000 nM. Further, the half-maximal inhibitory concentration (IC50) on Recombinant IDO1 (setting [2]) stood at 150 nM; on Recombinant TDO (setting [2]), 260 nM.
On to `OC(c1cccc2cncn12)C1CCCCCC1` (stereo not drawn) [Example A009, Cycloheptyl(imidazo[1,5-a]pyridin-5-yl)methanol], for which the EC50 in test [1] (setting [2]) was greater than 10000 nM. For the same molecule, the IC50 on Recombinant IDO1 (setting [2]) stood at 110 nM; on Recombinant TDO (setting [2]), 260 nM.
For `c1cc(CC2CCCCC2)n2cncc2c1` [Example A015, 5-(cyclohexylmethyl)imidazo[1,5-a]pyridine], in test [1] (setting [2]), the EC50 was greater than 10000 nM. Besides, the IC50 on Recombinant IDO1 (setting [2]) turned out to be 540 nM; on Recombinant TDO (setting [2]) it was 260 nM.
In test [1] (setting [2]), `FC(c1cc(Cl)cc2cncn12)C1CCC(F)(F)CC1` (stereo not drawn) [Example A020, 7-chloro-5-((4,4-difluorocyclohexyl)fluoromethyl)imidazo[1,5-a]pyridine] returned a concentration for a half-maximal effect (EC50) greater than 10000 nM. In addition, the IC50 at Recombinant IDO1 (setting [2]) turned out to be 8900 nM; on Recombinant TDO (setting [2]), 350 nM.
On to `OC(c1ccc(F)c2cncn12)C1CCCCC1` (stereo not drawn) [Example A022, cyclohexyl(8-fluoroimidazo[1,5-a]pyridin-5-yl)methanol], for which the EC50 in test [1] (setting [2]) is greater than 10000 nM. Besides, the figures for the IC50 on Recombinant IDO1 (setting [2]) and at Recombinant TDO (setting [2]) were 1200 nM and 570 nM, respectively.
With `Clc1cc(CC2CCCCC2)n2cncc2c1` [Example A026, 7-chloro-5-(cyclohexylmethyl)imidazo[1,5-a]pyridine], the 50% effective concentration (EC50) in test [1] (setting [2]) was greater than 10000 nM. The IC50 at Recombinant IDO1 (setting [2]) is 107 nM; at Recombinant TDO (setting [2]), 73 nM.
The molecule `OC(c1cc(Cl)cc2cncn12)C1CCCCC1` (stereo not drawn) [Example A101, (7-chloroimidazo[1,5-a]pyridin-5-yl)(cyclohexyl)methanol] showed an EC50 in test [1] (setting [2]) of 1360 nM. For the same molecule, the IC50 was 29 nM at Recombinant IDO1 (setting [2]) and 68 nM on Recombinant TDO (setting [2]).
In test [1] (setting [2]), `O[C@H](c1cc(Cl)cc2cncn12)C1CCCCC1` [Example A101a, (S)-(7-chloroimidazo[1,5-a]pyridin-5-yl)(cyclohexyl)methanol] showed a concentration giving a half-maximal response (EC50) of 326 nM. The IC50 is 9.6 nM at Recombinant IDO1 (setting [2]) and 29 nM on Recombinant TDO (setting [2]).
The matching figures for `OC(CC1CCCCC1)c1cc(Cl)cc2cncn12` (stereo not drawn) [Example A102, 1-(7-chloroimidazo[1,5-a]pyridin-5-yl)-2-cyclohexylethan-1-ol]: 1760 nM, 67 nM and 300 nM.
`OC(c1cc(Cl)cc2cncn12)C1CCCC1` (stereo not drawn) [Example A103, (7-chloroimidazo[1,5-a]pyridin-5-yl)(cyclopentyl)methanol] came in with an EC50 in test [1] (setting [2]) of 1510 nM. For the same molecule, the half-inhibitory concentration (IC50) on Recombinant IDO1 (setting [2]) and on Recombinant TDO (setting [2]) was 22 nM each time.
In test [1] (setting [2]), `CC1CCC(C(O)c2cc(Cl)cc3cncn23)CC1` (stereo not drawn) [Example A104, (7-chloroimidazo[1,5-a]pyridin-5-yl)(4-methylcyclohexyl)methanol] had an EC50 of 2180 nM. The figures for the concentration for half-maximal inhibition (IC50) on Recombinant IDO1 (setting [2]) and on Recombinant TDO (setting [2]) were 29 nM and 270 nM, respectively.
Taken in the same sequence, the figures for `O=C(NC1CCCC(C(O)c2cc(Cl)cc3cncn23)C1)c1cccc(Cl)c1` (stereo not drawn) [Example A105, 3-chloro-N-(3-((7-chloroimidazo[1,5-a]pyridin-5-yl)(hydroxy)methyl)cyclohexyl)benzamide] were 1690 nM, 127 nM and 1600 nM.
The matching figures for `OC(c1cc(I)cc2cncn12)C1CCCCC1` (stereo not drawn) [Example A107, cyclohexyl(7-iodoimidazo[1,5-a]pyridin-5-yl)methanol 2,2,2-trifluoroacetate]: 968 nM, 26 nM and 110 nM.
The matching figures for `OC(c1cc(C2CC2)cc2cncn12)C1CCCCC1` (stereo not drawn) [Example A108, cyclohexyl(7-cyclopropylimidazo[1,5-a]pyridin-5-yl)methanol 2,2,2-trifluoroacetate]: 4440 nM, 36 nM and 150 nM.
In test [1] (setting [2]), `OC(c1cc(C(F)(F)F)cc2cncn12)C1CCCCC1` (stereo not drawn) [Example A109, cyclohexyl(7-(trifluoromethyl)imidazo[1,5-a]pyridin-5-yl)methanol] came in with an EC50 of 1540 nM. Besides, the IC50 at Recombinant IDO1 (setting [2]) was found to be 49 nM; at Recombinant TDO (setting [2]), 110 nM.
For the molecule `OC(c1cc(C(F)(F)F)cc2cncn12)C1CCCC1` (stereo not drawn) [Example A110, Cyclopentyl(7-(trifluoromethyl)imidazo[1,5-a]pyridin-5-yl)methanol], the half-maximal effective concentration (EC50) in test [1] (setting [2]) came to 2090 nM. Besides, the concentration for half-maximal inhibition (IC50) at Recombinant IDO1 (setting [2]) came to 66 nM; at Recombinant TDO (setting [2]), 120 nM.
Taken in the same sequence, the figures for `OC(c1cc(Br)cc2cncn12)C1CCCCC1` (stereo not drawn) [Example A111, (7-bromoimidazo[1,5-a]pyridin-5-yl)(cyclohexyl)methanol] were 962 nM, 25 nM and 63 nM.
With `OC(c1cc(Br)cc2cncn12)C1CCCC1` (stereo not drawn) [Example A112, (7-bromoimidazo[1,5-a]pyridin-5-yl)(cyclopentyl)methanol], in test [1] (setting [2]), it took 1040 nM to reach a half-maximal effect (EC50). Further, the half-inhibitory concentration (IC50) came to 24 nM on Recombinant IDO1 (setting [2]) and 48 nM on Recombinant TDO (setting [2]).

Values taken from patent US10280163B2 (BeiGene, Ltd., priority 2015, dated 2019).
